From patent publication US11919965B2, “Methods of treating multiple myeloma with bispecific anti-BCMA x anti-CD3 antibodies” (Regeneron Pharmaceuticals, Inc., priority 2019, dated 2024)

Key:
[1] = system: B16/BCMA tumors; experiment: Syngenic tumor model in CD3-humanized mice (Example 16); type: in vivo, mouse
Procedure: (§1) To determine the in vivo efficacy of anti-BCMA×anti-CD3 bispecific antibodies (Abs), a syngenic tumor study was performed in mice expressing human CD3. C57BL/6 mice that express human CD3deg in place of murine CD3deg (CD3-humanized mice) were subcutaneously implanted with either 0.5×10^6 B16 melanoma cells that have been engineered to express full-length human BCMA (B16/BCMA cells) or 1×10^6 MC38 colon carcinoma cells that have been engineered to express full-length human BCMA (MC38/BCMA). […] The mice were administered these Abs twice more on days 4 and 7 for a total of three doses, and tumor growth was assessed throughout the experiment.
(§2) Implantation and measurement of syngenic tumors: C57BL/6 mice that express human CD3deg in place of murine CD3deg (CD3-humanized mice) were subcutaneously implanted with either 0.5×10^6 B16F10 melanoma cells that have been engineered to express full-length human BCMA (B16/BCMA cells) or 1×10^6 MC38 colon carcinoma cells that have been engineered to express full-length human BCMA (MC38/BCMA). […] The mice were administered these Abs twice more on days 4 and 7 for a total of three doses, and tumor growth was assessed throughout the experiment.
(§3) Calculation of syngenic tumor growth and inhibition: In order to determine tumor volume by external caliper, the greatest longitudinal diameter (length in mm) and the greatest transverse diameter (width in mm) were determined. Tumor volumes based on caliper measurements were calculated by the formula: Volume (mm^3)=(length×width^2)/2.

[2] = system: MC38/BCMA tumors; experiment: as above; type: in vivo, mouse
Procedure: as §1, §2, §3

## REGN5458: anti-BCMA×anti-CD3 bispecific antibody: mAb21581 BCMA heavy chain, mAb7221G CD3 heavy chain and common light chain; SEQ ID NOs 126, 127, 129
[1]; 0.4 or 0.04 mg/kg
  tumor growth: suppress the growth of both tumor lines in a dose-dependent manner
[1]; B16/BCMA Tumor, 0.04 mg/kg
  Average Tumor Size (mm3) ± SEM on Day 5: 3.3 ± 2.2 mm3
  Average Tumor Size (mm3) ± SEM on Day 10: 15.4 ± 12.5 mm3
  Average Tumor Size (mm3) ± SEM on Day 14: 81.4 ± 49.2 mm3
[1]; B16/BCMA Tumor, 0.4 mg/kg
  Average Tumor Size (mm3) ± SEM on Day 5: 0.0 ± 0.0 mm3
  Average Tumor Size (mm3) ± SEM on Day 10: 0.0 ± 0.0 mm3
  Average Tumor Size (mm3) ± SEM on Day 14: 8.1 ± 4.4 mm3
  Average Tumor Size (mm3) ± SEM on Day 18: 47.1 ± 17.0 mm3
[2]; 0.4 or 0.04 mg/kg
  tumor growth: suppress the growth of both tumor lines in a dose-dependent manner
[2]; MC38/BCMA Tumor, 0.04 mg/kg
  Average Tumor Size (mm3) ± SEM on Day 5: 11.9 ± 2.9 mm3
  Average Tumor Size (mm3) ± SEM on Day 10: 66.7 ± 22.5 mm3
  Average Tumor Size (mm3) ± SEM on Day 14: 273.3 ± 115.3 mm3
  Average Tumor Size (mm3) ± SEM on Day 18: 641.5 ± 309.8 mm3
[2]; MC38/BCMA Tumor, 0.4 mg/kg
  Average Tumor Size (mm3) ± SEM on Day 10: 0.0 ± 0.0 mm3
  Average Tumor Size (mm3) ± SEM on Day 14: 2.9 ± 2.9 mm3
  Average Tumor Size (mm3) ± SEM on Day 18: 7.5 ± 7.5 mm3
